The term pIC50 denotes −log10 of the IC50, conventionally taken in molar units. Read a high pIC50 as a small IC50.

The record followed here is patent publication US5618818A, “Muscarinic agonist compounds” (The University of Toledo, priority 1996, dated 1997).

The experiment addresses muscarinic receptors in the rat central nervous system. Kind of experiment: Binding affinity at muscarinic receptors in the rat central nervous system, [^3 H]-QNB IC50. As to conditions: mean from one to three experiments, each in triplicate. The text has this: Binding affinities and agonist activity in a series of
amidine derivatives at muscarinic receptors in the rat
central nervous system. Data represent the mean from one
to three experiments, each performed in triplicate.

pIC50: −log10 of the molar value. Where a name gives a salt, the structure may show the parent alone.

For the compound `CN(C)NC(=O)C1CN=C(N)NC1` (stereo not shown) [CDD-0126-A, 2-Amino-1,4,5,6-tetrahydropyrimidine-5-carboxylic-(N,N-dimethyl)hydrazide HCl], the pIC50 was 4.30.
